From patent US10190093B2, “Artificial oocyte activation” (The Curators of the University of Missouri, priority 2013, dated 2019)
Marks after values point to notes of the source that are not given here.

How the values were obtained:
SCNT embryos = assay: In vitro development of SCNT embryos treated with Scriptaid or TPEN; type: cell-based, pig; details: SCNT + Scriptaid
Procedure: Activated oocytes were washed three times in PZM3 then incubated at 38.5° C., 5% CO2 until the embryos were examined on either day 2, 6 or 7. At the end of the culture, where applicable, the frequency of cleaved embryos and blastocysts, and total cell number in the blastocysts were recorded. Hoechst 33342 (1.2 mg/mL) was used to stain nuclei and the embryos were then evaluated by epi-fluorescence microscopy.
Next, the optimal concentration and duration of TPEN ([…], 30 min) was used to artificially activate reconstructed SCNT embryos. […] Thus lower concentrations of TPEN (5-10 μM) can enhance embryo development when introduced after conventional oocyte activation.

MII oocytes = assay: Intracellular calcium measurement (fura-2); type: cell-based, pig; details: oocytes incubated with thimerosal, positive control
Procedure: The zonae pellucidae were removed after maturation and zona-free oocytes were loaded with the Ca^2+ indicator dye, fura-2. For this purpose, they were incubated in the presence of […] of the acetoxymethyl ester form of the dye and 0.02% pluronic F-127 for 40-50 min (both from Invitrogen). The dye loaded oocytes were transferred into a chamber with a cover-glass bottom and the chamber was then placed on the heated stage of an inverted microscope. Changes in the intracellular free Ca^2+ concentration were recorded using InCytIm2, a dual-wavelength fluorescence imaging system (Intracellular Imaging, Inc.; Cincinnati, Ohio). During measurements the emitted fluorescence was detected at 510 nm after exciting the dye alternately at 340 and 380 nm. The ratio of the two emitted fluorescence intensities was calculated and the data are presented as fluorescence ratio values. Ratios of 1.0 and 5.0 correspond to about 100 and 1,200 nM Ca^2+, respectively. In each treatment group the measurements were repeated at least 5 times using different oocytes.

SMILES | % blastocysts (SCNT embryos) | intracellular Ca2+ increase (MII oocytes)
O=C(CCCCCN1C(=O)c2cccc3cccc(c23)C1=O)NO [Scriptaid] | 22.7%^b | 
C[CH2][Hg][S]c1ccccc1C(=O)[O-].[Na+] [thimerosal] |  | could induce Ca^2+ increase
